{"source": "paper PMC10932281", "about": "“A Combination of β-Aescin and Newly Synthesized Alkylamidobetaines as Modern Components Eradicating the Biofilms of Multidrug-Resistant Clinical Strains of Candida glabrata” (International Journal of Molecular Sciences, 2024)", "key": {"C. glabrata cells": {"tested_on": "C. glabrata cells", "set-up": "method as in PMID 37508306", "conditions": "ref [12], cited from earlier work"}, "[1]": {"tested_on": "C. glabrata clinical isolate C27", "set-up": "method as in PMID 37508306", "conditions": "ref [12]; cited from earlier work"}, "[2]": {"tested_on": "C. glabrata clinical isolate C8 (C18)", "set-up": "method as in PMID 37508306", "conditions": "ref [12]; cited from earlier work"}, "ERG11 and ALS3": {"tested_on": "ERG11 and ALS3", "set-up": "method as in PMID 37508306", "conditions": "qRT-PCR; ref [12]; cited from earlier work"}, "C. glabrata DSM 1226": {"tested_on": "C. glabrata DSM 1226", "set-up": "method as in PMID 37508306", "conditions": "ref [12]; cited from earlier work"}, "C. glabrata 2853": {"tested_on": "C. glabrata 2853", "test": "Interaction of AABs (3 µM) with antifungal agents, modified checkerboard", "type": "cell-based, Candida glabrata"}, "C. glabrata ATCC 90030": {"tested_on": "C. glabrata ATCC 90030", "test": "Interaction of AABs (3 µM) with antifungal agents, modified checkerboard", "type": "cell-based, Candida glabrata"}, "Krafft temperature (TK)": {"test": "Krafft temperature (TK)", "type": "physicochemical", "method": "CHNS elemental analysis was carried out by a Vario EL cube (Elementar, Germany) calibrated on acetanilide. Electrospray ionization mass spectroscopy (ESI-MS) (micrOTOF-Q instrument; Bruker Daltonics, Germany) allowed for the MS spectra to be obtained. The ESI-MS instrument was operated in the positive ion mode and calibrated with the Tunemix^TM mixture (Bruker Daltonics, Germany). The mass accuracy was better than 5 ppm. The obtained mass spectra were analyzed using DataAnalysis 3.4 software (Bruker Daltonics, Germany). ^1H NMR spectra were recorded on a Bruker AMX-500 spectrometer, using CDCl3 as a solvent. ^1H chemical shifts (in ppm) were calibrated to TMS as an internal reference. Melting points were determined using a Boetius melting point apparatus, while Krafft temperatures were determined according to the directions given in [47]. CMC is the minimum concentration above which micelles are formed in aqueous liquid. To obtain the CMC values, we used McGowan’s model. […] Molecular characteristic volumes (Vx) are found by the addition of the atomic characteristic volumes and the subtraction for the same factory (6.56 × 10^−6 m^3 mol^−1) for every covalent bond."}, "[3]": {"conditions": "C9 at constant 3 µM, dilutions in µg/mL"}, "[4]": {"conditions": "C11 at constant 3 µM, dilutions in µg/mL"}, "[5]": {"conditions": "C13 at constant 3 µM, dilutions in µg/mL"}, "[6]": {"conditions": "C15 at constant 3 µM, dilutions in µg/mL"}}, "note": "Where two headings read alike, the source gives them in different places."}
{"compound": "β-aescin", "values": [{"measurement": "Increase versus control (FACS, membrane integrity)", "setting": "C. glabrata cells; 1 × MIC", "result": "about 7.4%"}, {"measurement": "Increase versus control (FACS, membrane integrity)", "setting": "C. glabrata cells; 2 × MIC", "result": "~22", "unit": "%"}, {"measurement": "MFC", "setting": "[1]", "result": 100, "unit": "µg/mL"}, {"measurement": "MIC", "setting": "[1]", "result": 50, "unit": "µg/mL"}, {"measurement": "MFC", "setting": "[2]", "result": 100, "unit": "µg/mL"}, {"measurement": "MIC", "setting": "[2]", "result": 40, "unit": "µg/mL"}, {"measurement": "Expression of ERG11 and ALS3", "setting": "ERG11 and ALS3", "result": "downregulation"}, {"measurement": "MFC", "setting": "C. glabrata DSM 1226", "result": 160, "unit": "µg/mL"}, {"measurement": "MIC", "setting": "C. glabrata DSM 1226", "result": 80, "unit": "µg/mL"}, {"measurement": "Multiplicity factor (MF) with C9", "setting": "C. glabrata 2853; C9 3 µM", "result": 1}, {"measurement": "MIC90 of antimycotic combined with C9", "setting": "C. glabrata 2853; [3]", "result": 128}, {"measurement": "Multiplicity factor (MF) with C11", "setting": "C. glabrata 2853; C11 3 µM", "result": 1}, {"measurement": "MIC90 of antimycotic combined with C11", "setting": "C. glabrata 2853; [4]", "result": 128}, {"measurement": "Multiplicity factor (MF) with C13", "setting": "C. glabrata 2853; C13 3 µM", "result": 1}, {"measurement": "MIC90 of antimycotic combined with C13", "setting": "C. glabrata 2853; [5]", "result": 128}, {"measurement": "Multiplicity factor (MF) with C15", "setting": "C. glabrata 2853; C15 3 µM", "result": 1}, {"measurement": "MIC90 of antimycotic combined with C15", "setting": "C. glabrata 2853; [6]", "result": 128}, {"measurement": "Multiplicity factor (MF) with C9", "setting": "C. glabrata ATCC 90030; C9 3 µM, |MF| = MIC90 alone/MIC90 with AAB", "result": 1}, {"measurement": "MIC90 of antimycotic combined with C9", "setting": "C. glabrata ATCC 90030; [3]", "result": 128}, {"measurement": "Multiplicity factor (MF) with C11", "setting": "C. glabrata ATCC 90030; C11 3 µM", "result": 1}, {"measurement": "MIC90 of antimycotic combined with C11", "setting": "C. glabrata ATCC 90030; [4]", "result": 128}, {"measurement": "Multiplicity factor (MF) with C13", "setting": "C. glabrata ATCC 90030; C13 3 µM", "result": 1}, {"measurement": "MIC90 of antimycotic combined with C13", "setting": "C. glabrata ATCC 90030; [5]", "result": 128}, {"measurement": "Multiplicity factor (MF) with C15", "setting": "C. glabrata ATCC 90030; C15 3 µM", "result": 1}, {"measurement": "MIC90 of antimycotic combined with C15", "setting": "C. glabrata ATCC 90030; [6]", "result": 128}]}
{"compound": "CCCCCCCCCC(=O)N(C)CCC[N+](C)(C)CC(=O)[O-]", "note": "[C9]", "values": [{"measurement": "TK (Krafft temperature)", "setting": "Krafft temperature (TK)", "result": "<0", "unit": "°C"}]}
